From US10780090B2, “Heteroaryl compounds useful as inhibitors of SUMO activating enzyme” (Millennium Pharmaceuticals, Inc., priority 2014, dated 2020)

Target: recombinant human SAE enzyme (Homo sapiens (Human), UniProt Q9UBT2)
Assay: SAE HTRF enzyme assay
Assay type: biochemical
How it was run: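 HTRF read-out using Eu-cryptate anti-Flag and allophycocyanin anti-GST antibodies, added with EDTA stop buffer and read after 2 h at 24 °C. The preceding reaction ran 105 min at 24 °C: 0.11 nM recombinant SAE, 0.5 μM ATP, Sumo-Flag, Ubc9-GST, pH 7.5. Values given as single-concentration inhibition or IC50.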

[1] = SAE inhibition at compound concentration 0.111 μM
[2] = SAE inhibition, class symbols, legend in nM

Chain of recombinant human SAE enzyme (Q9UBT2 whole entry): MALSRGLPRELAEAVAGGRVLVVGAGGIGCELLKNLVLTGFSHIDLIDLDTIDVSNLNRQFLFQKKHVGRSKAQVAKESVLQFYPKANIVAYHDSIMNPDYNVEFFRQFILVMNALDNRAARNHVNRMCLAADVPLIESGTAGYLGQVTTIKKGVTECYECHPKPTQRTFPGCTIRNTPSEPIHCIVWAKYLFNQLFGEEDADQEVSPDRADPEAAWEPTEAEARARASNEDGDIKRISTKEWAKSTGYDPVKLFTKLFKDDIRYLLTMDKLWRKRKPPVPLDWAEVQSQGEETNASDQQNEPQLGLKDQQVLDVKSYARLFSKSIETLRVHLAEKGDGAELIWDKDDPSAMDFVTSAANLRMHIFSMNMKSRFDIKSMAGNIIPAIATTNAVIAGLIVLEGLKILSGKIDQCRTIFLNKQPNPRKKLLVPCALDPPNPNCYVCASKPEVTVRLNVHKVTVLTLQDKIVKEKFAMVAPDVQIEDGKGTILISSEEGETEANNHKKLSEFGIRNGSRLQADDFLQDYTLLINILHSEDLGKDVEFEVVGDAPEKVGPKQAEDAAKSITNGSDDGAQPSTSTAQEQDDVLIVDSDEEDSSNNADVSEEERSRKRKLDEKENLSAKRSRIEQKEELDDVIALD
Chain of recombinant human SAE enzyme (Q9UBE0 whole entry partner): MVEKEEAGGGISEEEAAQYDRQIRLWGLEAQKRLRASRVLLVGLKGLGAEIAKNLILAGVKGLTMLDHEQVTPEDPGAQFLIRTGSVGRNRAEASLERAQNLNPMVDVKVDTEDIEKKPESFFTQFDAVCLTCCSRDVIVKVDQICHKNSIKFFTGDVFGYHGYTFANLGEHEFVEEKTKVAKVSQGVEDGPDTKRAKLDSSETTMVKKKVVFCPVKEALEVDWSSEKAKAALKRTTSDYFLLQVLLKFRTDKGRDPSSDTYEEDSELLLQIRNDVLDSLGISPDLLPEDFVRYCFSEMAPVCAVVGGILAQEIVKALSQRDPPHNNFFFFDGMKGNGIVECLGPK

C[C@](O)(c1csc(C(=O)c2cncnc2N[C@@H]2C[C@H](COS(N)(=O)=O)[C@@H](O)C2)c1)c1cccc(Br)n1 (mixture of isomers) [I-54, [(1R,2S,4R)-4-{[5-({4-[(1S)-1-(6-bromopyridin-2-yl)-1-hydroxyethyl]-2-thienyl}carbonyl)pyrimidin-4-yl]amino}-2-hydroxycyclopentyl]methyl sulfamate and [(1R,2S,4R)-4-{[5-({4-[(1R)-1-(6-bromopyridin-2-yl)-1-hydroxyethyl]-2-thienyl}carbonyl)pyrimidin-4-yl]amino}-2-hydroxycyclopentyl]methyl sulfamate]
Percent Inhibition (Concentration 0.111 μM): 99 | IC50 (class symbols A/B/C): < 10 nM

Cc1sc(C(=O)c2cncnc2N[C@@H]2C[C@H](COS(N)(=O)=O)[C@@H](O)C2)cc1[C@@H]1OCCc2cccnc21 (mixture of isomers) [I-285, [(1R,2S,4R)-4-{[5-({4-[(8S)-5,8-dihydro-6H-pyrano[3,4-b]pyridin-8-yl]-5-methyl-2-thienyl}carbonyl)pyrimidin-4-yl]amino}-2-hydroxycyclopentyl]methyl sulfamate and [(1R,2S,4R)-4-{[5-({4-[(8R)-5,8-dihydro-6H-pyrano[3,4-b]pyridin-8-yl]-5-methyl-2-thienyl}carbonyl)pyrimidin-4-yl]amino}-2-hydroxycyclopentyl]methyl sulfamate]
Percent Inhibition [1]: 100% | IC50 [2]: < 10 nM

NS(=O)(=O)OC[C@H]1C[C@@H](Nc2ncncc2C(=O)c2cc([C@H]3NCCc4ccccc43)c(Cl)s2)[C@H](O)[C@@H]1O (mixture of isomers) [I-302, [(1R,2R,3S,4R)-4-{[5-({5-chloro-4-[(1S)-1,2,3,4-tetrahydroisoquinolin-1-yl]-2-thienyl}carbonyl)pyrimidin-4-yl]amino}-2,3-dihydroxycyclopentyl]methyl sulfamate and [(1R,2R,3S,4R)-4-{[5-({5-chloro-4-[(1R)-1,2,3,4-tetrahydroisoquinolin-1-yl]-2-thienyl}carbonyl)pyrimidin-4-yl]amino}-2,3-dihydroxycyclopentyl]methyl sulfamate]
Percent Inhibition [1]: 100% | IC50 [2]: < 10 nM

Cc1sc(C(=O)c2cncnc2N[C@@H]2C[C@H](COS(N)(=O)=O)[C@@H](O)C2)cc1[C@H]1NCCc2ccc(Cl)cc21 [I-263b, [(1R,2S,4R)-4-{[5-({4-[(1S)-7-chloro-1,2,3,4-tetrahydroisoquinolin-1-yl]-5-methyl-2-thienyl}carbonyl)pyrimidin-4-yl]amino}-2-hydroxycyclopentyl]methyl sulfamate]
inhibition at 0.111 µM (Concentration 0.111 μM, read-out: Percent Inhibition): 89% | IC50 (class symbols A/B/C): 10 to 100 nM

NS(=O)(=O)OC[C@H]1C[C@@H](Nc2ncncc2C(=O)c2cc([C@@H]3OCCCc4ccc(Cl)cc43)cs2)C[C@@H]1O (single isomer, unassigned) [I-314a, [(1R,2S,4R)-4-{[5-({4-[(1R)-8-chloro-1,3,4,5-tetrahydro-2-benzoxepin-1-yl]-2-thienyl}carbonyl)pyrimidin-4-yl]amino}-2-hydroxycyclopentyl]methyl sulfamate or [(1R,2S,4R)-4-{[5-({4-[(1S)-8-chloro-1,3,4,5-tetrahydro-2-benzoxepin-1-yl]-2-thienyl}carbonyl)pyrimidin-4-yl]amino}-2-hydroxycyclopentyl]methyl sulfamate]
Percent Inhibition [1]: 49% | IC50 [2]: 100 to 1000 nM

C[C@](N)(c1cccc(Cl)c1)c1csc(C(=O)c2cncnc2N[C@@H]2C[C@H](COS(N)(=O)=O)[C@@H](O)C2)c1 (single isomer, unassigned) [I-12b, [(1R,2S,4R)-4-{[5-({4-[(1S)-1-amino-1-(3-chlorophenyl)ethyl]-2-thienyl}carbonyl)pyrimidin-4-yl]amino}-2-hydroxycyclopentyl]methyl sulfamate or [(1R,2S,4R)-4-{[5-({4-[(1R)-1-amino-1-(3-chlorophenyl)ethyl]-2-thienyl}carbonyl)pyrimidin-4-yl]amino}-2-hydroxycyclopentyl]methyl sulfamate]
Percent Inhibition (Concentration 0.111 μM): 100 | IC50 (class symbols A/B/C): < 10 nM

NC(c1cccc(Br)c1)c1cc(C(=O)c2cncnc2NC2CC(O)C(COS(N)(=O)=O)C2)sc1Cl (mixture of isomers) [I-22, [(1R,2S,4R)-4-{[5-({4-[(R)-amino(3-bromophenyl)methyl]-5-chloro-2-thienyl}carbonyl)pyrimidin-4-yl]amino}-2-hydroxycyclopentyl]methyl sulfamate and [(1R,2S,4R)-4-{[5-({4-[(S)-amino(3-bromophenyl)methyl]-5-chloro-2-thienyl}carbonyl)pyrimidin-4-yl]amino}-2-hydroxycyclopentyl]methyl sulfamate]
Percent Inhibition (Concentration 0.111 μM): 99 | IC50 (class symbols A/B/C): < 10 nM

Cc1sc(C(=O)c2cncnc2N[C@@H]2C[C@H](COS(N)(=O)=O)[C@@H](O)C2)cc1[C@@H]1OCCc2ccc(C3CC3)cc21 (single isomer, unassigned) [I-277a, [(1R,2S,4R)-4-{[5-({4-[(1R)-7-cyclopropyl-3,4-dihydro-1H-isochromen-1-yl]-5-methyl-2-thienyl}carbonyl)pyrimidin-4-yl]amino}-2-hydroxycyclopentyl]methyl sulfamate or [(1R,2S,4R)-4-{[5-({4-[(1S)-7-cyclopropyl-3,4-dihydro-1H-isochromen-1-yl]-5-methyl-2-thienyl}carbonyl)pyrimidin-4-yl]amino}-2-hydroxycyclopentyl]methyl sulfamate]
Percent Inhibition (Concentration 0.111 μM): 100 | IC50 (class symbols A/B/C): < 10 nM

NS(=O)(=O)OC[C@H]1C[C@@H](Nc2ncncc2C(=O)c2cc([C@H](O)C3CCOCC3)c(Cl)s2)C[C@@H]1O (mixture of isomers) [I-174, [(1R,2S,4R)-4-{[5-({5-chloro-4-[(R)-hydroxy(tetrahydro-2H-pyran-4-yl)methyl]-2-thienyl}carbonyl)pyrimidin-4-yl]amino}-2-hydroxycyclopentyl]methyl sulfamate and [(1R,2S,4R)-4-{[5-({5-chloro-4-[(S)-hydroxy(tetrahydro-2H-pyran-4-yl)methyl]-2-thienyl}carbonyl)pyrimidin-4-yl]amino}-2-hydroxycyclopentyl]methyl sulfamate]
Percent Inhibition (Concentration 0.111 μM): 89 | IC50 (class symbols A/B/C): 10 to 100 nM

CN1Cc2ccc(Cl)cc2[C@@H]1c1csc(C(=O)c2cncnc2N[C@@H]2C[C@H](COS(N)(=O)=O)[C@@H](O)C2)c1 (mixture of isomers) [I-265, [(1R,2S,4R)-4-{[5-({4-[(1R)-6-chloro-2-methyl-2,3-dihydro-1H-isoindol-1-yl]-2-thienyl}carbonyl)pyrimidin-4-yl]amino}-2-hydroxycyclopentyl]methyl sulfamate and [(1R,2S,4R)-4-{[5-({4-[(1S)-6-chloro-2-methyl-2,3-dihydro-1H-isoindol-1-yl]-2-thienyl}carbonyl)pyrimidin-4-yl]amino}-2-hydroxycyclopentyl]methyl sulfamate]
Percent Inhibition (Concentration 0.111 μM): 97 | IC50 (class symbols A/B/C): < 10 nM

NS(=O)(=O)OC[C@H]1C[C@@H](Nc2ncncc2C(=O)c2cc([C@@H]3OCCc4ccc(Cl)nc43)c(Cl)s2)C[C@@H]1O (single isomer, unassigned) [I-276a, [(1R,2S,4R)-4-{[5-({5-chloro-4-[(8S)-2-chloro-5,8-dihydro-6H-pyrano[3,4-b]pyridin-8-yl]-2-thienyl}carbonyl)pyrimidin-4-yl]amino}-2-hydroxycyclopentyl]methyl sulfamate or [(1R,2S,4R)-4-{[5-({5-chloro-4-[(8R)-2-chloro-5,8-dihydro-6H-pyrano[3,4-b]pyridin-8-yl]-2-thienyl}carbonyl)pyrimidin-4-yl]amino}-2-hydroxycyclopentyl]methyl sulfamate]
Percent Inhibition (Concentration 0.111 μM): 28 | IC50 (class symbols A/B/C): 100 to 1000 nM

[(1R,2S,4R)-4-{[5-({4-[(1R)-7-bromo-1,2,3,4-tetrahydroisoquinolin-1-yl]-5-chloro-2-thienyl}carbonyl)pyrimidin-4-yl]amino}-2-hydroxycyclopentyl]methyl sulfamate and [(1R,2S,4R)-4-{[5-({4-[(1S)-7-bromo-1,2,3,4-tetrahydroisoquinolin-1-yl]-5-chloro-2-thienyl}carbonyl)pyrimidin-4-yl]amino}-2-hydroxycyclopentyl]methyl sulfamate [I-251]
Percent Inhibition (Concentration 0.111 μM): 100 | IC50 (class symbols A/B/C): < 10 nM

COCc1sc(C(=O)c2cncnc2N[C@@H]2C[C@H](COS(N)(=O)=O)[C@@H](O)C2)cc1C(O)c1cccc(Cl)c1 (single isomer, unassigned) [I-7a, [(1R,2S,4R)-4-{[5-({4-[(R)-(3-chlorophenyl)(hydroxy)methyl]-5-(methoxymethyl)-2-thienyl}carbonyl)pyrimidin-4-yl]amino}-2-hydroxycyclopentyl]methyl sulfamate or [(1R,2S,4R)-4-{[5-({4-[(S)-(3-chlorophenyl)(hydroxy)methyl]-5-(methoxymethyl)-2-thienyl}carbonyl)pyrimidin-4-yl]amino}-2-hydroxycyclopentyl]methyl sulfamate]
Percent Inhibition (Concentration 0.111 μM): 96 | IC50 (class symbols A/B/C): < 10 nM

NS(=O)(=O)OC[C@H]1C[C@@H](Nc2ncncc2C(=O)c2cc([C@H]3OCCc4c(Cl)cccc43)cs2)C[C@@H]1O (mixture of isomers) [I-301, [(1R,2S,4R)-4-{[5-({4-[(1R)-5-chloro-3,4-dihydro-1H-isochromen-1-yl]-2-thienyl}carbonyl)pyrimidin-4-yl]amino}-2-hydroxycyclopentyl]methyl sulfamate and [(1R,2S,4R)-4-{[5-({4-[(1S)-5-chloro-3,4-dihydro-1H-isochromen-1-yl]-2-thienyl}carbonyl)pyrimidin-4-yl]amino}-2-hydroxycyclopentyl]methyl sulfamate]
Percent Inhibition [1]: 99% | IC50 [2]: < 10 nM
